Patent US4966962A, “Reverse analogue of actinomycin D” (Trustees of Boston University, priority 1988, dated 1990)
Read-outs that look alike come from different tables or passages of the source.

Columns and labels:
[1] = Metabolism in tumor cell homogenate (T); assay type: in vitro ADME, murine; settings: P388 homogenate (T), 37° C., 16 h
Protocol: (§1) In this respect, actinomycin is only about 30% as efficient as its synthetic analogues, RAD III (3c) and SAD (2) (Table II). Metabolic Studies, Metabolism in the Presence of Tumor Cell Homogenates and Rat Liver Microsomes. The cell homogenates (P388 cells were sonicated and were incubated at 37° C. with analogues for 16 h. Rat microsomes were harvested from phenobarbital-induced rats by standard procedure. Incubations were carried out for 6 h in the presence of a NADPH-generating system, i.e., glucose-6-phosphate dehydrogenase and glucose 6-phosphate. The metabolites and their water-soluble conjugates were isolated and identified with the use of tritiated analogues.
(§2) It was observed that the RAD analogues are metabolized to SAD (2) with the loss of oxazole ring. […] In tumor cells, a larger fraction of SAD (2) (30-50%) remains unmetabolized. SAD is found to form glucuronide and sulfate conjugates only in tumor cells. […] Isolation of SAD from RAD analogues is a very important step, because SAD is found to be a potent and effective antitumor agent in several murine tumor systems (Tables V-XII).

rat liver microsomes [2] = experiment: Metabolism in rat liver microsomes (M); assay type: in vitro ADME; settings: 6 h, NADPH-generating system
Protocol: as §1, §2

[3] = test system: human colon carcinoma HT-29; experiment: Inhibition of nucleic acid synthesis in HT-29 cells in vitro; assay type: cell-based; settings: 2-h exposure
Description: In addition to the P388 cells, this inhibitory activity in human carcinoma HT-29 grown in tissue culture has been also examined. The values of the drug concentration producing 50% inhibition of the incorporation of [^3 H]-thymidine and [^14 C] uridine into nucleic acid macromolecules are presented in Table V. These values are taken as estimates of the inhibition of DNA and RNA synthesis. […] Furthermore, the inhibitory activities of these analogues are three-to fivefold higher than AMD; the order of potency of the analogues for their inhibition of DNA synthesis is:
DNA and RNA synthesis in P388 and HT-29 cells lines was monitored in the presence of drugs, and the rates of inhibition of their synthesis were estimated from the amounts of [2-^14 C]-uridine and [^3 H]-thymidine into RNA and DNA, respectively, according to the methods described previously.
In brief, for HT-29 colon carcinoma monolayer cells, 10^4 cells in each of five wells per concentration, were incubated with radiolabelec nucleosides ([…] each) for the last hour of a 2-h drug exposure, following which the cells were aspirated and washed with buffered medium. Cells were trypsinized and counted in the Coulter counter. The cell suspensions were then precipitated onto glass fiber filter discs (Whatman 934H), with 10% trichloracetic acid and twice with 95% ethanol and dried, and the incorporation of radionucleotides was estimated.
In addition, to investigate the cross contamination of radioactivity from [2^14 C] uridine, the cells were lysed with ice-cold 1% Triton X for 2.5 min. Macromolecules were precipitated with the addition of 10% perchloric acid (5% in the medium) and centrifuged; the pellet in 1% NaCl was treated with an equal volume of phenol reagent, the emulsion was centrifuged at 10000 g for 30 min at 4° C., and the separated layer was adjusted to 1% NaCl and treated with an equal volume of 2-ethoxyethanol to precipitate the nucleic acids. The precipitate was washed with 75% ethanol and dissolved in an aqueous solution containing 2% sodium acetate and 1.5% NaCl. An aliquot was used for estimation of the total radionucleotide incorporation. Ribonuclease, previously heated to 80° C. for 10 min to destroy deoxyribonuclease activity, was added, and the mixture was incubated at 37° C. for 30 min.
^a Human colon carcinoma in culture, IC50, drug concentration
producing a 50% inhibition of incorporation of precursor [^3 H]
thymidine into DNA and [^14 C] uridine into RNA in the cell lines,
isolated as acid preciptable materials. Data are average of replicate

P388 Leukemia = experiment: Minimum effective dose in P388 tumor bearing mice; assay type: in vivo
Description: ^a Drugs administered ip once on days 1, 5, and 9 starting 1 day afte
tumor implantation. Determinations were made from analysis of plotted
logdose response data. ^b MED (minimum effective dose) is the dose
(milligram/killogram) providing an increase in life span of 45% over

rat liver microsomes [4] = experiment: Stimulation of NADPH oxidation by rat hepatic microsomal incubations; assay type: biochemical
Description: It has been reported that the quinone imino chromophore of actinomycin can be subjected to enzyme-catalyzed single-electron reduction to give free-radical species that generate superoxides by reacting with molecular oxygen. The process needs a reductive cofactor NADPH, which is oxidized to NADP^+ during the process, giving a change in the absorbance at 340 nm that can be measured spectrophotometerically. Alternatively, the superoxides generated during the process may be allowed to react with epinephrine to produce adrenochrome, a chromophore with strong absorbance at 480 nm that can be measured spectrophotmetrically.
The superoxide formations were studied via NADPH oxidation catalyzed by AMD analogues in the presence of rat liver microsomes. […] The process of adrenochrome formation is inhibited by superoxide dismutase, confirming that superoxide is indeed generated in these systems.
^a The percentage stimulation = (drugstimulated rate basal rate)/basa
rate × 100 and is shown in parentheses. NADPH oxidation was measure
at 340 nm and adrenochrome formation was measured at 489 nm; the values
are average ± standard errors of triplicate analyses. ^b SOD,

colon 38 adenocarcinoma = experiment: Activity against advanced colon carcinoma C38 tumor; assay type: in vivo, CDF1 mice; settings: for % inhibn of tumor: tumors measured day 21
Protocol: In view of favorable activity agianst colon 26 carcinoma, further experiments using the active analogues were carried out on the advanced colon adenocarcinomas of mouse colon 38. […] The superiority of RAD III and SAD over AMD in inhibiting colon 38 carcinoma is evident from the data of both tumor weight inhibition and increases in survival time of the treated over nontreated mice and the larger number of long-term survivors produced by these analogues.
^a CDF1 mice were injected sc with colon 38 adenocarcinoma
fragments (70 mg) and treated with drugs with iv injections on day 1, 5,
and 9 following tumor imoplantation on day 0. ^b [100 (tumor weight o
treated mice/tumor weight of untreated mice)] × 100; data pooled
from two experiments, tumors measured on day 21 after implantation ^c
(Median survival time of treated mice/median survival of untreated mice)
× 100; in parenthesis, number of over 100 day survivors/number of […]

lung LX-1 = experiment: Treatment of lung LX-1 tumor; assay type: in vivo; settings: at the doses tested
[5] = dose 0.30 mg/kg iv days 1, 5, 9
[6] = dose 0.60 mg/kg iv days 1, 5, 9
[7] = dose 1.20 mg/kg iv days 1, 5, 9

Question: For Cc1c2oc3c(C)c(O)c(N)c(C(=O)N[C@@H]4C(=O)N[C@H](C(C)C)C(=O)N5CCC[C@H]5C(=O)N(C)CC(=O)N(C)[C@@H](C(C)C)C(=O)O[C@@H]4C)c3nc-2c(C(=O)N[C@@H]2C(=O)N[C@H](C(C)C)C(=O)N3CCC[C@H]3C(=O)N(C)CC(=O)N(C)[C@@H](C(C)C)C(=O)O[C@@H]2C)c(N)c1=O [SAD (2)], which “percent isolated: tissue bound” value [1] is on record?
Answer: 7.5 ± 1.0%

Question: What about the “percent isolated: unidentified metabolite” value [1] of the same compound?
Answer: 10.0 ± 1.0%

Question: And the “percent metabolite isolated: SAD-glucuronide and/or sulfate” value [1]?
Answer: 47.0 ± 6.5%

Question: What about the “percent metabolite isolated: protein conjugates” value [1] of the same compound?
Answer: 5.5 ± 1.5%

Question: What about the percent unconverted drug [1] of the same compound?
Answer: 30-50%

Question: What about the percent unconverted drug ([1]; listed as SAD(2)) of the same compound?
Answer: 30.0 ± 3.0%

Question: And the “percent isolated: tissue bound” value (rat liver microsomes [2])?
Answer: 15.0 ± 3.0%

Question: What about the “percent isolated: unidentified metabolite” value (rat liver microsomes [2]) of the same compound?
Answer: 15.0 ± 4.0%

Question: And the “percent metabolite isolated: SAD-glucuronide and/or sulfate” value (rat liver microsomes [2])?
Answer: nil

Question: And the “percent metabolite isolated: protein conjugates” value (rat liver microsomes [2])?
Answer: 20.0 ± 5.0%

Question: What about the percent unconverted drug (rat liver microsomes [2]) of the same compound?
Answer: 50.0 ± 10.5%

Question: What about the IC50 ([3]; [3H]thymidine incorporation, read-out: IC50, DNA synth) of the same compound?
Answer: 70 ± 11 nM

Question: And the IC50 ([3]; [14C]uridine incorporation, read-out: IC50, RNA synth)?
Answer: 55 ± 6 nM

Question: What about the “therapeutic index MTD/MED” value (P388 Leukemia; MTD in normal BDF1 mice / MED in P388 tumor bearing mice) of the same compound?
Answer: 96

Question: And the “MED (minimum effective dose), dose giving 45% increase in life span over control” value (P388 Leukemia; ip once on days 1, 5, and 9, from plotted log-dose response data)?
Answer: 0.025 milligram/killogram

Question: And the “percentage stimulation of NADPH oxidation” value (rat liver microsomes [4]; (drug-stimulated rate - basal rate)/basal rate × 100)?
Answer: 606%

Question: And the NADPH oxidation (rat liver microsomes [4]; measured at 340 nm, average ± standard error of triplicate)?
Answer: 64.3 ± 2.11 nmol/min per mg of protein

Question: What about the “% T/C (median survival time)” value (colon 38 adenocarcinoma; [5]) of the same compound?
Answer: 278%

Question: And the “over 100 day survivors/number of mice” value (colon 38 adenocarcinoma; [5])?
Answer: 5/9

Question: And the “% inhibn of tumor” value (colon 38 adenocarcinoma; [5])?
Answer: 95%

Question: What about the “% T/C (median survival time)” value (colon 38 adenocarcinoma; [6]) of the same compound?
Answer: 278%

Question: What about the “over 100 day survivors/number of mice” value (colon 38 adenocarcinoma; [6]) of the same compound?
Answer: 6/9

Question: What about the “% inhibn of tumor” value (colon 38 adenocarcinoma; [6]) of the same compound?
Answer: 97%

Question: And the “% T/C (median survival time)” value (colon 38 adenocarcinoma; [7])?
Answer: 211%

Question: What about the “over 100 day survivors/number of mice” value (colon 38 adenocarcinoma; [7]) of the same compound?
Answer: 2/9

Question: And the “% inhibn of tumor” value (colon 38 adenocarcinoma; [7])?
Answer: 99%

Question: What about the “activity relative to AMD at equivalent doses” value (colon 38 adenocarcinoma; every 4 days, three times, from day 1 after implant) of the same compound?
Answer: about 150%

Question: And the “response of lung LX-1 to treatment” value (lung LX-1)?
Answer: practically ineffective
